Test results reported in US8658604B2, “Template-fixed beta-hairpin peptidomimetics with protease inhibitory activity” (Polyphor Ltd, priority 2005, dated 2014).
Read-outs that look alike come from different tables or passages of the source. Where a SMILES comes first, the peptide text is derived from it.

Key:
HELA cells (Acc57) = experiment: Cytotoxicity assay (MTT reduction), HELA cells; type: cell-based; settings: Hela cells
Summary of the method: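 HeLa cells were grown for 24 h, then exposed to peptides at 12.5, 25 and 50 μM in triplicate for 48 h at 37 °C. MTT reduction was read at 595 nm and growth % calculated relative to time-zero wells. LC50 interpolated by linear trend at −50% growth, GI50 at 50%.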

[1] = type: in vitro ADME; settings: 10 µM
Experimental: 405 μl of plasma/albumin solution were placed in a polypropylene (PP) tube and spiked with 45 μl of compound from a […] solution B, derived from 135 μl of PBS and 15 μl of 1 mM peptide in PBS, pH 7.4. 150 μl aliquots were transferred into individual wells of the 10 kDa filter plate (Millipore MAPPB 1010 Biomax membrane). For “0 minutes controls”: 270 μl of PBS were placed in a PP tube and 30 μl of stock solution B was added and vortexed. 150 μl of control solution were placed into one well of the filter plate and served as “filtered control”.
Further 150 μl of control solution were placed directly into a receiver well (reserved for filtrate) and served as “not-filtered control”. The entire plate including evaporation lid was incubated for 60 min at 37° C. Plasma samples (rat plasma: Harlan Sera lab UK, human plasma: Blutspendezentrum Zürich) were centrifuged at least for 2 h at 4300 rpm (3500 g) and 15° C. in order to yield 100 filtrate. For “serum albumin”-samples (freshly prepared human albumin: Sigma A-4327, rat albumin: Sigma A-6272, all at 40 mg/ml concentration in PBS) approximately 1 hour of centrifugation was sufficient. The filtrates in the receiver PP plate were analysed by LC/MS as follower follows: Column: Jupiter C18 (Phenomenex), mobile phases: (A) 0.1% formic acid in water and (B) acetonitrile, gradient: 5%-100% (B) in 2 minutes, electrospray ionization, MRM detection (triple quadrupole). The peak areas were determined and triplicate values were averaged. The binding was expressed in percent of the (filtered and not-filtered time point 0 min) control 1 and 2 by: 100−(100×T60/T0). The average from these values was then calculated.

[2] = system: human red blood cells (hRBC); experiment: Hemolysis
[3] = target: T1, Trypsin, from human pancreas (Homo sapiens, UniProt P07477); experiment: Enzymatic assay, trypsin; settings: at 100 μM
Chymase, from human skin [4] = target: T2, Chymase, from human skin (Homo sapiens, UniProt P23946); experiment: Enzymatic assay, chymase
T2 sequence (P23946 22-247): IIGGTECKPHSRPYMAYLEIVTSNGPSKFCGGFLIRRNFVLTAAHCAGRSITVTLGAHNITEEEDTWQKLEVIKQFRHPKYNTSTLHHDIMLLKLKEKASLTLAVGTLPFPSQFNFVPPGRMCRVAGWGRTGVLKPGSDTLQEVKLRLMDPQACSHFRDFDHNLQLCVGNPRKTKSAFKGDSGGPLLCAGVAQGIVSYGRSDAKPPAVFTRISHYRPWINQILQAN

[5] = target: T3, Elastase from human neutrophils (Homo sapiens, UniProt P08246); experiment: Enzymatic assay, elastase
T3 sequence (P08246 30-267): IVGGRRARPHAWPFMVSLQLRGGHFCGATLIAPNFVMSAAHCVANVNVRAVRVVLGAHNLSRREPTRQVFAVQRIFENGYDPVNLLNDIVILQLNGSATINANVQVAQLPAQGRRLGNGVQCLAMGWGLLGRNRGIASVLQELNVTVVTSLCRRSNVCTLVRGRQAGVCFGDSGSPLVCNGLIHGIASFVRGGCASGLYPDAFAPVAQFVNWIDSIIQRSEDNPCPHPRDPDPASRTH

[6] = target: Thrombin, from Human Plasma (Homo sapiens, UniProt P00734); experiment: Enzymatic assay, thrombin
[7] = system: Tryptase, from human lung; experiment: Enzymatic assay, tryptase; settings: at 100 μM
[8] = target: Urokinase from human urine (Homo sapiens, UniProt P00749); experiment: Enzymatic assay, urokinase
[9] = target: T4, CathepsinG, from human neutrophils (Homo sapiens, UniProt P08311); experiment: Enzymatic assay, cathepsin G; settings: Cathepsin G IC50
T4 sequence (P08311 21-244): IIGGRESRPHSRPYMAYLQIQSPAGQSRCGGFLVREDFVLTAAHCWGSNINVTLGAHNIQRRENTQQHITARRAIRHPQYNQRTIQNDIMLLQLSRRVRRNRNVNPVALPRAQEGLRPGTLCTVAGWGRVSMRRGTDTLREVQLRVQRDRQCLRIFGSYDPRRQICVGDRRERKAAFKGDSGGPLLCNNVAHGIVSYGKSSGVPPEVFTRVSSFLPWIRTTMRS

[10] = target: Chymotrypsin, from human pancreas (Homo sapiens, UniProt P17538); experiment: Enzymatic assay, chymotrypsin
[11] = target: Coagulation Factor Xa, from uman plasma (Homo sapiens, UniProt P00742); experiment: Enzymatic assay, coagulation factor Xa
[12] = target: T1, Trypsin, from human pancreas
[13] = Pharmacokinetic study after single oral (gavage) and intravenous administration in rats; settings: rat
Experimental: 2.6. Pharmacokinetic Study (PK)
Pharmacokinetic Study after Single Oral (Gavage) and Intravenous Administration in Rats
Blood samples (approx. 0.24 ml) were taken following the schedule below at different time points into heparinized tubes by automated blood sampling using the DiLab AccuSampler. When a problem occurred during automated blood sampling, blood was sampled by retro-orbital bleeding under light isoflurane anesthesia. Samples were taken at the following time points: 0, 5 min (only i.v.), 15, 30 min and 1, 2, 4, 8, 16, 24 and 36 (only p.o.) hours and added to heparinized tubes. Plasma was removed from pelleted cells upon centrifugation and frozen at −80° C. prior to HPLC-MS analysis.
Preparation of the Plasma Calibration Samples
“Blank” rat plasma from untreated animals was used. […] The OASIS® HLB cartridges were conditioned with 1 ml of methanol and then with 1 ml of 1% NH3 in water. Samples were then diluted with 400 μl of 1% NH3 in water and loaded. The plate was washed with 1 ml of methanol/1% NH3 in water 5/95. Elution was performed using 1 ml of 0.1% TFA in methanol.
The plate containing eluates was introduced into the concentrator system and taken to dryness. The residues were dissolved in 100 μl of formic acid 0.1%/acetonitrile, 95/5 (v/v) and analysed in the HPLC/MS on a reverse phase analytical column (Jupiter C18, 50×2.0 mm, 5 μm, Phenomenex), using gradient elution (mobile phases A: 0.1% formic acid in water, B: Acetonitrile; from 5% B to 100% B in 2 min.).
Preparation of Plasma Samples
From each sample 100 μl of plasma were taken for the extraction. If the volume was less than 100 μl the appropriate amount of “blank” mouse plasma was added in order to keep the matrix identical to the calibration curve. Samples were then spiked with IS and processed as described for the calibration curve.
Pharmacokinetic Evaluation
The area under the curve AUC was calculated by the linear trapezoidal rule. AUC(t-∞) was estimated as Ct/b (b: elimination rate constant). […] the sum of AUC(0-t) and AUC(t-∞). Elimination half-life was calculated by the linear regression on at least three data points during the elimination phase. The time intervals selected for the half-life determinations were evaluated by the correlation coefficient (r^2), which should be at least above 0.85 and most optimally above 0.96. In case of i.v. administration the initial concentration at tzero was determined by extrapolation of the curve through the first two time points.

Chymase, from human skin [14] = target: T2, Chymase, from human skin

Chain of Coagulation Factor Xa, from uman plasma (P00742 235-488 limits assumed): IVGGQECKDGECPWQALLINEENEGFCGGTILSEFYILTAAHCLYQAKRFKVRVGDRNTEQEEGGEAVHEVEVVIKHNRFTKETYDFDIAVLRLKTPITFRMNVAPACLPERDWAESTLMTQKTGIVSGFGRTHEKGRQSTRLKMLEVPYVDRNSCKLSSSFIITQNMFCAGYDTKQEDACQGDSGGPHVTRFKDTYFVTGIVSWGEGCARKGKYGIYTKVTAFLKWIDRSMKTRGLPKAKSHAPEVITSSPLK
Chain of Coagulation Factor Xa, from uman plasma (P00742 41-179 limits assumed): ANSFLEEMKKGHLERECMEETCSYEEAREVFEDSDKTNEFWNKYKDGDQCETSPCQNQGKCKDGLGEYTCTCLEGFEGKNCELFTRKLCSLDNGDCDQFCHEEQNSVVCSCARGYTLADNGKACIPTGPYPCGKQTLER
Chain of Chymotrypsin, from human pancreas (P17538 19-263): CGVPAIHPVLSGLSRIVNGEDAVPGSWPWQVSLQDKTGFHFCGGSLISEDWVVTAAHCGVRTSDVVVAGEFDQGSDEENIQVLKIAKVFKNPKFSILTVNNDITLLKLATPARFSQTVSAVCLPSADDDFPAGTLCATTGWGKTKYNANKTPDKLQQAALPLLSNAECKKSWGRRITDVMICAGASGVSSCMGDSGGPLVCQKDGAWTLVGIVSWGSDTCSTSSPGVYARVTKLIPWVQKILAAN

SMILES: CCCC[C@@H]1NC(=O)[C@H]([C@@H](C)O)NC(=O)[C@@H]2CSSC[C@H](NC(=O)[C@H]([C@@H](C)CC)NC(=O)[C@@H]3CCCN3C(=O)[C@@H]3CCCN3C(=O)[C@H](CC(=O)O)NC(=O)[C@H](CO)NC1=O)C(=O)N[C@@H](Cc1ccc(O)cc1)C(=O)N1CCC[C@@H]1C(=O)N1CCC[C@H]1C(=O)N[C@@H](Cc1ccccc1)C(=O)N2 [Ex. 23] (HELM PEPTIDE1{F.C.T.[Nle].S.D.P.P.I.C.Y.[dP].P}$PEPTIDE1,PEPTIDE1,2:R3-10:R3|PEPTIDE1,PEPTIDE1,1:R1-13:R2$$$V2.0)
- Cytotoxicity LC50/GI50 Hela cells (HELA cells (Acc57)): 51000 nM
- Stability human Plasma t1/2 [1]: 5 h
- Stability rat Plasma t1/2 [1]: 5 h
- Hemolysis at 100 μM % [2]: 0%
- Trypsin at 100 μM % [3]: 90%
- Chymase at 100 μM % (Chymase, from human skin [4]): 60%
- IC50 ([5]; Elastase IC50): > 100000 nM
- Thrombin at 100 μM % [6]: 0%
- Tryptase at 100 μM % [7]: 29%
- Urokinase at 100 μM % [8]: 9%
- IC50 [9]: 38 nM
- Chymotrypsin at 100 μM % [10]: 4%
- FXa at 100 μM % [11]: 11%

SMILES: CCCC[C@@H]1NC(=O)[C@@H]2CCCN2C(=O)[C@H]2CCCN2C(=O)[C@H](CCC(N)=O)NC(=O)[C@@H]2CSSC[C@H](NC1=O)C(=O)N[C@@H]([C@@H](C)O)C(=O)N[C@@H](C)C(=O)N[C@@H](CO)C(=O)N[C@@H]([C@@H](C)CC)C(=O)N1CCC[C@H]1C(=O)N1CCC[C@H]1C(=O)N[C@@H](CCC(N)=O)C(=O)N2 [Ex. 131] (HELM PEPTIDE1{[Nle].C.T.A.S.I.P.P.Q.C.Q.[dP].P}$PEPTIDE1,PEPTIDE1,2:R3-10:R3|PEPTIDE1,PEPTIDE1,1:R1-13:R2$$$V2.0)
- Trypsin at 100 μM % [12]: 0%
- IC50 ([5]; read-out: Elastase IC50): 28 nM
- IC50 [9]: 45 nM

SMILES: CC[C@H](C)[C@@H]1NC(=O)[C@@H]2CCCN2C(=O)[C@@H]2CCCN2C(=O)[C@H](CC(=O)O)NC(=O)[C@H](CO)NC(=O)[C@H](CCCCN)NC(=O)[C@H]([C@@H](C)O)NC(=O)[C@@H]2CSSC[C@H](NC1=O)C(=O)N[C@@H](Cc1ccccc1)C(=O)N1CCC[C@@H]1C(=O)N1CCC[C@H]1C(=O)N[C@@H](CCCNC(=N)N)C(=O)N2 [Ex. 75] (HELM PEPTIDE1{R.C.T.K.S.D.P.P.I.C.F.[dP].P}$PEPTIDE1,PEPTIDE1,2:R3-10:R3|PEPTIDE1,PEPTIDE1,1:R1-13:R2$$$V2.0)
- Stability human Plasma t1/2 [1]: 5 h
- Stability rat Plasma t1/2 [1]: 5 h
- half-life ([13]; male, Wistar, in vivo, iv, 5 mg/kg): 0.5 h
- level at 0.25 h ([13]; male, Wistar, iv, 5 mg/kg): 5770 ng/mL
- level at 0.5 h ([13]; male, Wistar, iv, 5 mg/kg): 3460 ng/mL
- level at 4 h ([13]; male, Wistar, iv, 5 mg/kg): 18 ng/mL
- Cmax ([13]; male, Wistar, po): 46 ng/mL
- Vd (apparent distribution volume) ([13]; male, Wistar, po, 50 mg/kg): 1.008 L/kg
- level at 4 h ([13]; male, Wistar, po, 50 mg/kg): 24 ng/mL
- apparent distribution volume after oral administration, fold higher than after i.v. [13]: about 1.8 fold
- % absorbed (F) (percentage of normalized AUC0-∞ po. against normalized AUC0-∞ i.v.) ([13]; 5 mg/kg): 100%
- % absorbed (F) (percentage of normalized AUC0-∞ po. against normalized AUC0-∞ i.v.) ([13]; 50 mg/kg): 1.3%
- Cmax norm ([13]; iv, 5 mg/kg): 0.08 ng/mL
- initial distribution volume ([13]; iv, 5 mg/kg): 355 mL/kg
- Cmax norm ([13]; po, 50 mg/kg): 0.25 ng/mL
- Trypsin at 100 μM % [3]: 92.6%
- Chymase at 100 μM % (Chymase, from human skin [4]): 0%
- Elastase at 100 μM % ([5]; at 100 μM (stated in cell instead of IC50)): 69.1 at %
- Thrombin at 100 μM % [6]: 1.1%
- Tryptase at 100 μM % [7]: 0%
- Urokinase at 100 μM % [8]: 5.7%
- IC50 [9]: 86 nM
- Chymotrypsin at 100 μM % [10]: 7.8 at 100 μM %
- FXa at 100 μM % [11]: 5.7%

SMILES: CCCC[C@@H]1NC(=O)[C@H](CC(=O)O)NC(=O)[C@H]2CCCN2C(=O)[C@H](Cc2ccc(O)cc2)NC(=O)[C@@H]2CSSC[C@H](NC1=O)C(=O)N[C@@H]([C@@H](C)O)C(=O)N[C@@H](C)C(=O)N[C@@H](CO)C(=O)N[C@@H]([C@@H](C)CC)C(=O)N1CCC[C@H]1C(=O)N1CCC[C@H]1C(=O)N[C@@H](CCC(N)=O)C(=O)N2 [Ex. 121] (HELM PEPTIDE1{[Nle].C.T.A.S.I.P.P.Q.C.Y.[dP].D}$PEPTIDE1,PEPTIDE1,2:R3-10:R3|PEPTIDE1,PEPTIDE1,1:R1-13:R2$$$V2.0)
- Cytotoxicity LC50/GI50 Hela cells (HELA cells (Acc57)): 49000 nM
- Stability human Plasma t1/2 [1]: 5 h
- Stability rat Plasma t1/2 [1]: 5 h
- Trypsin at 100 μM % [3]: 12.8%
- Chymase at 100 μM % (Chymase, from human skin [4]): 1.2%
- IC50 ([5]; Elastase IC50): 18 nM
- Thrombin at 100 μM % [6]: 0%
- Tryptase at 100 μM % [7]: 4.6%
- Urokinase at 100 μM % [8]: 5.7%
- IC50 [9]: 11200 nM
- IC50 [10]: 27500 nM
- FXa at 100 μM % [11]: 5.6%

SMILES: CCCC[C@@H]1NC(=O)[C@@H]2CCCN2C(=O)[C@@H](C)NC(=O)[C@H](Cc2ccc(O)cc2)NC(=O)[C@@H]2CSSC[C@H](NC1=O)C(=O)N[C@@H]([C@@H](C)O)C(=O)N[C@@H](C)C(=O)N[C@@H](CO)C(=O)N[C@@H]([C@@H](C)CC)C(=O)N1CCC[C@H]1C(=O)N1CCC[C@H]1C(=O)N[C@@H](CCC(N)=O)C(=O)N2 [Ex. 130] (HELM PEPTIDE1{[Nle].C.T.A.S.I.P.P.Q.C.Y.[dA].P}$PEPTIDE1,PEPTIDE1,2:R3-10:R3|PEPTIDE1,PEPTIDE1,1:R1-13:R2$$$V2.0)
- Chymase at 100 μM % (Chymase, from human skin [14]): <4000%
- IC50 ([5]; Elastase IC50): 29 nM
